Data reported in PubChem BioAssay AID328 (DTP/NCI, 2004).
“And” between values parts separate entries of the source, which are not always exact repeats. Identical values can stand only once. Toxic doses and inconclusive results are not listed.

Tested on: BDF1 mice, P388 leukemia ip, median survival T/C
Experiment: NCI In Vivo Anticancer Drug Screen. Data for tumor model P388 Leukemia (intraperitoneal) in B6D2F1 (BDF1) mice
Settings: endpoint: median survival time, higher = longer survival
Experimental: The antitumor activity of compounds was measured in mice bearing transplantable tumors. Survival or tumor size were measured and the results are expressed as the measurement made in the treated group (T) divided by the measurement made in the vehicle treated control group (C). The tumor model used in this assay is P388 Leukemia (intraperitoneal) in B6D2F1 (BDF1) mice

[1] = dose: 100.0 mg/kg/injection, schedule: Q01DX009 (ip), vehicle: saline with Tween-80
[2] = dose: 200.0 mg/kg/injection, schedule: Q01DX009 (ip), vehicle: saline with Tween-80
[3] = dose: 200.0 mg/kg/injection, schedule: Q04DX003 (ip), vehicle: saline with Tween-80
[4] = dose: 100.0 mg/kg/injection, schedule: Q01DX001 (ip), vehicle: saline with Tween-80
[5] = dose: 200.0 mg/kg/injection, schedule: Q01DX001 (ip), vehicle: saline with Tween-80

In the case of CCOC(=O)CCC(C(=O)OCC)C(=O)OCC, the T/C [1] is reported as 107 % of control, the T/C (dose: 100.0 mg/kg/injection, schedule: Q04DX003 (ip), vehicle: saline with Tween-80) is reported as 91 % of control and the T/C [2] is reported as 100 % of control. For the same compound, the T/C [3] was 100 % of control, the T/C (dose: 400.0 mg/kg/injection, schedule: Q01DX009 (ip), vehicle: saline with Tween-80) was 92 % of control and the T/C (dose: 400.0 mg/kg/injection, schedule: Q04DX003 (ip), vehicle: saline with Tween-80) was 95 % of control.

In the case of COc1cc(NC(=O)N(CCCl)N=O)cc(OC)c1OC, the T/C (dose: 0.88 mg/kg/injection, schedule: Q04DX003 (ip), vehicle: saline + alcohol) is reported as 114 % of control, the T/C (dose: 1.6 mg/kg/injection, schedule: Q01DX009 (ip), vehicle: saline + alcohol) is reported as 168 % of control and the T/C (dose: 2.4 mg/kg/injection, schedule: Q01DX009 (ip), vehicle: saline + alcohol) is reported as 161 % of control. The T/C (dose: 3.0 mg/kg/injection, schedule: Q04DX003 (ip), vehicle: saline + alcohol) was 166 % of control, the T/C (dose: 3.7 mg/kg/injection, schedule: Q01DX009 (ip), vehicle: saline + alcohol) was 203 % of control and the T/C (dose: 5.5 mg/kg/injection, schedule: Q04DX003 (ip), vehicle: saline + alcohol) was 168 % of control. For the same compound, the T/C (dose: 5.56 mg/kg/injection, schedule: Q01DX009 (ip), vehicle: saline + alcohol) was 201 % of control and 203 % of control, the T/C (dose: 8.3 mg/kg/injection, schedule: Q04DX003 (ip), vehicle: saline + alcohol) was 218 % of control and the T/C (dose: 8.33 mg/kg/injection, schedule: Q01DX009 (ip), vehicle: saline + alcohol) was 220 % of control. The T/C (dose: 12.5 mg/kg/injection, schedule: Q01DX009 (ip), vehicle: saline + alcohol) was 226 % of control, the T/C (dose: 12.5 mg/kg/injection, schedule: Q04DX003 (ip), vehicle: saline + alcohol) was 227 % of control and the T/C (dose: 18.7 mg/kg/injection, schedule: Q01DX009 (ip), vehicle: saline + alcohol) was 111 % of control. The T/C (dose: 18.7 mg/kg/injection, schedule: Q04DX003 (ip), vehicle: saline + alcohol) was 268 % of control and the T/C (dose: 25.0 mg/kg/injection, schedule: Q01DX009 (ip), vehicle: saline + alcohol) was 108 % of control.

CN(C)Cc1cc(C(C)(C)CC(C)(C)C)ccc1O was tested, and the T/C (dose: 100.0 mg/kg/injection, schedule: Q04DX002 (ip), vehicle: Klucel (hydroxypropylcellulose) (HPC)) was 114 % of control and the T/C (dose: 200.0 mg/kg/injection, schedule: Q04DX002 (ip), vehicle: Klucel (hydroxypropylcellulose) (HPC)) was 99 % of control.

For CC(C(=O)O)S(=O)(=O)c1ccccc1 (stereo unspecified), the T/C (dose: 100.0 mg/kg/injection, schedule: Q04DX002 (ip), vehicle: saline with Tween-80) was 93 % of control and the T/C (dose: 200.0 mg/kg/injection, schedule: Q04DX002 (ip), vehicle: saline with Tween-80) was 102 % of control.

O=Cc1ccc(/C=C2\NC(=O)NC2=O)cc1 was tested, and the T/C (dose: 3.12 mg/kg/injection, schedule: Q01DX009 (ip), vehicle: water) was 89 % of control, the T/C (dose: 6.25 mg/kg/injection, schedule: Q01DX009 (ip), vehicle: Klucel (hydroxypropylcellulose) (HPC)) was 100 % of control and the T/C (dose: 6.25 mg/kg/injection, schedule: Q01DX009 (ip), vehicle: water) was 106 % of control. For the same compound, the T/C (dose: 12.5 mg/kg/injection, schedule: Q01DX009 (ip), vehicle: Klucel (hydroxypropylcellulose) (HPC)) was 95 % of control, the T/C (dose: 12.5 mg/kg/injection, schedule: Q01DX009 (ip), vehicle: water) was 120 % of control and the T/C (dose: 25.0 mg/kg/injection, schedule: Q01DX009 (ip), vehicle: Klucel (hydroxypropylcellulose) (HPC)) was 92 % of control. For the same compound, the T/C (dose: 25.0 mg/kg/injection, schedule: Q01DX009 (ip), vehicle: water) was 121 % of control, the T/C (dose: 50.0 mg/kg/injection, schedule: Q01DX009 (ip), vehicle: Klucel (hydroxypropylcellulose) (HPC)) was 92 % of control and the T/C (dose: 50.0 mg/kg/injection, schedule: Q04DX003 (ip), vehicle: water) was 103 % of control. The T/C (dose: 100.0 mg/kg/injection, schedule: Q04DX003 (ip), vehicle: water) was 87 % of control and the T/C (dose: 200.0 mg/kg/injection, schedule: Q04DX003 (ip), vehicle: water) was 119 % of control.

With CO[C@H]1/C=C/O[C@@]2(C)Oc3c(C)c(O)c4c(O)c(c(/C=N/N5CCN(C)CC5)c(O)c4c3C2=O)NC(=O)/C(C)=C\C=C\[C@H](C)[C@H](O)[C@@H](C)[C@@H](O)[C@@H](C)[C@H](OC(C)=O)[C@@H]1C the T/C (dose: 50.0 mg/kg/injection, schedule: Q01DX010 (ip), vehicle: saline) was 109 % of control, the T/C (dose: 100.0 mg/kg/injection, schedule: Q01DX010 (ip), vehicle: saline) was 114 % of control and the T/C (dose: 200.0 mg/kg/injection, schedule: Q01DX010 (ip), vehicle: saline) was 109 % of control. For the same compound, the T/C (dose: 400.0 mg/kg/injection, schedule: Q01DX010 (ip), vehicle: saline) was 109 % of control.

For C=CCN1C(=O)CNC1=O, the T/C (dose: 50.0 mg/kg/injection, schedule: Q01DX009 (ip), vehicle: saline) was 93 % of control, the T/C (dose: 100.0 mg/kg/injection, schedule: Q01DX009 (ip), vehicle: saline) was 100 % of control and the T/C (dose: 200.0 mg/kg/injection, schedule: Q01DX009 (ip), vehicle: saline) was 101 % of control.

In the case of O=C(c1ccccc1)c1ccccc1, the T/C (dose: 100.0 mg/kg/injection, schedule: Q01DX001 (ip), vehicle: Klucel (hydroxypropylcellulose) (HPC)) is reported as 100 % of control, the T/C (dose: 200.0 mg/kg/injection, schedule: Q01DX001 (ip), vehicle: Klucel (hydroxypropylcellulose) (HPC)) is reported as 100 % of control and the T/C (dose: 400.0 mg/kg/injection, schedule: Q01DX001 (ip), vehicle: Klucel (hydroxypropylcellulose) (HPC)) is reported as 116 % of control.

CCOC(=O)c1ccc(NS(=O)c2ccccc2)cc1 (stereo unspecified) was tested, and the T/C (dose: 50.0 mg/kg/injection, schedule: Q01DX009 (ip), vehicle: saline with Tween-80) was 100 % of control, the T/C [1] was 93 % of control and the T/C [2] was 111 % of control.

In the case of COc1cc2c(cc1OC)C1=C(CC2)C2CCCN2CC1 (stereo unspecified), the T/C (dose: 6.25 mg/kg/injection, schedule: Q01DX009 (ip), vehicle: saline) is reported as 95 % of control, the T/C (dose: 12.5 mg/kg/injection, schedule: Q01DX009 (ip), vehicle: saline) is reported as 105 % of control and the T/C (dose: 25.0 mg/kg/injection, schedule: Q01DX009 (ip), vehicle: saline) is reported as 95 % of control.

CC(=O)/C=C/c1ccc([N+](=O)[O-])cc1 was tested, and the T/C (dose: 100.0 mg/kg/injection, schedule: Q04DX003 (ip), vehicle: saline sonified) was 90 % of control, the T/C (dose: 200.0 mg/kg/injection, schedule: Q04DX003 (ip), vehicle: saline sonified) was 90 % of control and the T/C (dose: 400.0 mg/kg/injection, schedule: Q04DX003 (ip), vehicle: saline sonified) was 100 % of control.

For CC1=CC(=O)NC1O (stereo unspecified), the T/C (dose: 2.5 mg/kg/injection, schedule: Q01DX010 (ip), vehicle: saline) was 87 % of control, the T/C (dose: 10.0 mg/kg/injection, schedule: Q01DX010 (ip), vehicle: saline) was 91 % of control and the T/C (dose: 15.0 mg/kg/injection, schedule: Q01DX010 (ip), vehicle: saline) was 100 % of control.

Cc1ccc(C(=S)NC(=O)Nc2ccccc2)cc1 was tested, and the T/C (dose: 50.0 mg/kg/injection, schedule: Q01DX001 (ip), vehicle: saline with Tween-80) was 93 % of control, the T/C [4] was 92 % of control and the T/C [5] was 90 % of control.

For OC1CCC2(CC1)SCCS2, the T/C [4] was 96 % of control, the T/C [5] was 103 % of control and the T/C (dose: 400.0 mg/kg/injection, schedule: Q01DX001 (ip), vehicle: saline with Tween-80) was 101 % of control.

In the case of COc1ccc(OC(=O)Nc2ccccc2OC)cc1, the T/C (dose: 100.0 mg/kg/injection, schedule: Q04DX003 (ip), vehicle: Klucel (hydroxypropylcellulose) (HPC)) is reported as 91 % of control, the T/C (dose: 200.0 mg/kg/injection, schedule: Q04DX003 (ip), vehicle: Klucel (hydroxypropylcellulose) (HPC)) is reported as 91 % of control and the T/C (dose: 400.0 mg/kg/injection, schedule: Q04DX003 (ip), vehicle: Klucel (hydroxypropylcellulose) (HPC)) is reported as 87 % of control.

CC(NC(=O)C(N)CSC(c1ccccc1)(c1ccccc1)c1ccccc1)C(=O)O (stereo unspecified) was tested, and the T/C (dose: 88.0 mg/kg/injection, schedule: Q04DX003 (ip), vehicle: saline with Tween-80) was 113 % of control, the T/C (dose: 88.0 mg/kg/injection, schedule: Q04DX003 (ip), vehicle: saline) was 122 % of control and the T/C [3] was 195 % of control.

In the case of CCC[CH2][Sn](=[S])[CH2]CCC, the T/C (dose: 0.59 mg/kg/injection, schedule: Q01DX009 (ip), vehicle: other) is reported as 111 % of control, the T/C (dose: 1.33 mg/kg/injection, schedule: Q01DX009 (ip), vehicle: other) is reported as 115 % of control and the T/C (dose: 1.56 mg/kg/injection, schedule: Q04DX003 (ip), vehicle: other) is reported as 109 % of control. For the same compound, the T/C (dose: 2.66 mg/kg/injection, schedule: Q04DX003 (ip), vehicle: other) was 109 % of control, the T/C (dose: 3.13 mg/kg/injection, schedule: Q04DX003 (ip), vehicle: other) was 116 % of control and the T/C (dose: 6.25 mg/kg/injection, schedule: Q04DX003 (ip), vehicle: other) was 156 % of control. The T/C (dose: 200.0 mg/kg/injection, schedule: Q01DX010 (ip), vehicle: carboxymethylcellulose (CMC)) was 110 % of control.
